Key:
hEP4 [1] = biological target: T1, hEP4 (Homo sapiens, UniProt P35408); assay: Functional data, human recombinant EP4 receptor stable transfectants; type: cell-based
T1 construct: expressed in transfected cells
Experimental: (§1) Human Recombinant EP1, EP2, EP3, EP4, FP, TP, IP and DP Receptors: Stable Transfectants
(§2) Plasmids encoding the human EP1, EP2, EP3, EP4, FP, TP, IP and DP receptors were prepared by cloning the respective coding sequences into the eukaryotic expression vector pCEP4 (Invitrogen). The pCEP4 vector contains an Epstein Barr virus (EBV) origin of replication, which permits episomal replication in primate cell lines expressing EBV nuclear antigen (EBNA-1). It also contains a hygromycin resistance gene that is used for eukaryotic selection. […] HEK-293 cells were grown in DMEM with 10% fetal bovine serum (FBS), 250 μg ml^−1 G418 (Life Technologies) and 200 μg ml^−1 gentamicin or penicillin/streptomycin.
(§3) For transfection, the cells were grown to 50-60% confluency on 10 cm plates. The plasmid pCEP4 incorporating cDNA inserts for the respective human prostanoid receptor (20 μg) was added to 500 μl of 250 mM CaCl2. […] After 30 min, 9 ml DMEM were added to the mixture. The DNA/DMEM/calcium phosphate mixture was then added to the cells, which had been previously rinsed with 10 ml PBS. The cells were then incubated for 5 hr at 37° C. in humidified 95% air/5% CO2. The calcium phosphate solution was then removed and the cells were treated with 10% glycerol in DMEM for 2 min. The glycerol solution was then replaced by DMEM with 10% FBS. The cells were incubated overnight and the medium was replaced by DMEM/10% FBS containing 250 μg ml^−1 G418 and penicillin/streptomycin. The following day hygromycin B was added to a final concentration of 200 μg ml^−1.
(§4) Ten days after transfection, hygromycin B resistant clones were individually selected and transferred to a separate well on a 24 well plate. At confluence each clone was transferred to one well of a 6 well plate, and then expanded in a 10 cm dish. Cells were maintained under continuous hygromycin selection until use.

hEP4 [2] = biological target: T1, hEP4; assay: Radioligand binding, hEP4; details: [3H]PGE2 competition
Experimental: as §1, §2, §3, §4
Radioligand binding studies on plasma membrane fractions prepared for cells stably transfected with the cat or human receptor were performed as follows. Cells washed with TME buffer were scraped from the bottom of the flasks and homogenized for 30 sec using a Brinkman PT 10/35 polytron. TME buffer was added as necessary to achieve a 40 ml volume in the centrifuge tubes. TME is comprised of 50 mM TRIS base, 10 mM MgCl2, 1 mM EDTA; pH 7.4 is achieved by adding 1 N HCl. The cell homogenate was centrifuged at 19,000 rpm for 20-25 min at 4° C. using a Beckman Ti-60 or Ti-70 rotor. The pellet was then resuspended in TME buffer to provide a final protein concentration of 1 mg/ml, as determined by Bio-Rad assay. Radioligand binding assays were performed in a 100 μl or 200 μl volume.
The binding of [^3H](N) PGE2 (specific activity 165 Ci/mmol) was determined in duplicate and in at least 3 separate experiments. Incubations were for 60 min at 25° C. and were terminated by the addition of 4 ml of ice-cold 50 mM TRIS-HCl followed by rapid filtration through Whatman GF/B filters and three additional 4 ml washes in a cell harvester (Brandel). Competition studies were performed using a final concentration of 2.5 or 5 nM [^3H](N) PGE2 and non-specific binding was determined with 10^−5 M unlabelled PGE2.

hEP1 = biological target: T2, hEP1 (Homo sapiens, UniProt P34995); assay: Functional data, human recombinant EP1 receptor stable transfectants; type: cell-based
T2 construct: expressed in transfected cells
T2 sequence (P34995 1-402): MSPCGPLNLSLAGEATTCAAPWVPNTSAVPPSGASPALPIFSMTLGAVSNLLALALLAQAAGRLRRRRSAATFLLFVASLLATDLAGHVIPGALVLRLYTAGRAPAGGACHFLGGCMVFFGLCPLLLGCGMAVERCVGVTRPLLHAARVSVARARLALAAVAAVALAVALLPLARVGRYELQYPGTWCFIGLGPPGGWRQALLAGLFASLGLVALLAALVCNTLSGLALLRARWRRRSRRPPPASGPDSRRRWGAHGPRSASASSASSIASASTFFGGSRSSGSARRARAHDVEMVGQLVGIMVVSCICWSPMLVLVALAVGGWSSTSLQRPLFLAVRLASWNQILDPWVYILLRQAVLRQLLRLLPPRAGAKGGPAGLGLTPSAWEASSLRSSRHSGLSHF
Experimental: as §1
(§5) Plasmids encoding the human EP1, EP2, EP3, EP4, FP, TP, IP and DP receptors were prepared by cloning the respective coding sequences into the eukaryotic expression vector pCEP4 (Invitrogen). The pCEP4 vector contains an Epstein Barr virus (EBV) origin of replication, which permits episomal replication in primate cell lines expressing EBV nuclear antigen (EBNA-1). It also contains a hygromycin resistance gene that is used for eukaryotic selection. The cells employed for stable transfection were human embryonic kidney cells (HEK-293) that were transfected with and express the EBNA-1 protein. These HEK-293-EBNA cells (Invitrogen) were grown in medium containing Geneticin (G418) to maintain expression of the EBNA-1 protein. HEK-293 cells were grown in DMEM with 10% fetal bovine serum (FBS), 250 μg ml^−1 G418 (Life Technologies) and 200 μg ml^−1 gentamicin or penicillin/streptomycin.
(§6) For transfection, the cells were grown to 50-60% confluency on 10 cm plates. The plasmid pCEP4 incorporating cDNA inserts for the respective human prostanoid receptor (20 μg) was added to 500 μl of 250 mM CaCl2. HEPES buffered saline×2 (2×HBS, 280 mM NaCl, 20 mM HEPES acid, 1.5 mM Na2 HPO4, pH 7.05-7.12) was then added dropwise to a total of 500 μl, with continuous vortexing at room temperature. After 30 min, 9 ml DMEM were added to the mixture. The DNA/DMEM/calcium phosphate mixture was then added to the cells, which had been previously rinsed with 10 ml PBS. The cells were then incubated for 5 hr at 37° C. in humidified 95% air/5% CO2. The calcium phosphate solution was then removed and the cells were treated with 10% glycerol in DMEM for 2 min. The glycerol solution was then replaced by DMEM with 10% FBS. The cells were incubated overnight and the medium was replaced by DMEM/10% FBS containing 250 μg ml^−1 G418 and penicillin/streptomycin. The following day hygromycin B was added to a final concentration of 200 μg ml^−1.
as §4

hTP = biological target: T3, hTP (Homo sapiens, UniProt P21731); assay: Functional data, human recombinant TP receptor stable transfectants; type: cell-based
T3 construct: expressed in transfected cells
T3 sequence (P21731 1-343): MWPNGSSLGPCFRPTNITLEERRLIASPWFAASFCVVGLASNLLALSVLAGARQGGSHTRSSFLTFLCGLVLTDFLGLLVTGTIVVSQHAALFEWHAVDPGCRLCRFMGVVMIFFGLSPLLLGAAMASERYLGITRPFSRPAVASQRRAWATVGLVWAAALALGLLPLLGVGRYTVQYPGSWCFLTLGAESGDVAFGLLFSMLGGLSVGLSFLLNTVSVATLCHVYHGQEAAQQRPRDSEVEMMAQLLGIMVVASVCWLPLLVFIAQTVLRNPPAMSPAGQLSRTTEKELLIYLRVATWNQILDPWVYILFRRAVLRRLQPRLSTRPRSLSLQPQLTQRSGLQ
Experimental: as §1, §5, §6, §4

hEP3A = biological target: T4, hEP3A (Homo sapiens, UniProt P43115); assay: Functional data, human recombinant EP3A receptor stable transfectants; type: cell-based
T4 construct: expressed in transfected cells
T4 sequence (P43115 1-390): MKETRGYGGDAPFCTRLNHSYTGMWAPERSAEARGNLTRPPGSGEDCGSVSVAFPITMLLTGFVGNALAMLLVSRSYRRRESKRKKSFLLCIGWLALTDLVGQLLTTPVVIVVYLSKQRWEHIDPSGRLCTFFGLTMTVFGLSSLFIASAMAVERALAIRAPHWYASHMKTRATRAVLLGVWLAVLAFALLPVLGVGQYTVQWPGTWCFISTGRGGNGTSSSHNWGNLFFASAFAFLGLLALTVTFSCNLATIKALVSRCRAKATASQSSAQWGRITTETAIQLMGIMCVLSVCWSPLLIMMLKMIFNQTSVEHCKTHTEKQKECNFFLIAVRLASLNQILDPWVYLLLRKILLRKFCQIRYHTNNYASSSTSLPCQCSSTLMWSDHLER
Experimental: as §1, §2, §3, §4

T1 sequence (P35408 whole entry): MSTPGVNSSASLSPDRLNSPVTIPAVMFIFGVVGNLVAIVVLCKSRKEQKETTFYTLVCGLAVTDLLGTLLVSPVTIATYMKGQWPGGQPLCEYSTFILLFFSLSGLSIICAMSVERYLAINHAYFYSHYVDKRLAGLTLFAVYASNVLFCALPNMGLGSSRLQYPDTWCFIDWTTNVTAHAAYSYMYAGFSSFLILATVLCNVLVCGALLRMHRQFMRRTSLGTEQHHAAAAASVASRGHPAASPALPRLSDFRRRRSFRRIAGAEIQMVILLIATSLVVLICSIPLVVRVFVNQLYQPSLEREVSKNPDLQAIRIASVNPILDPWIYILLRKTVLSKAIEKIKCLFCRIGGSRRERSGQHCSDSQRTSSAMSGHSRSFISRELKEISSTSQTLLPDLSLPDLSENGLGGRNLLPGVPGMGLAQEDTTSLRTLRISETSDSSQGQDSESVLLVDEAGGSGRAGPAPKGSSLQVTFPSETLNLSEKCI

Structure (SMILES) | EC50 (hEP4 [1]) [nM] | IC50 (hEP4 [2]) [nM] | hEP1 functional EC50 (hEP1) | EC50 (hEP3A) [nM] | hEP3A functional EC50 (hEP3A) | EC50 (hTP) [nM] | EC50 (hEP1) [nM]
CCOC(=O)CCCCCCN1C(=O)CC[C@@H]1CCC(O)Cc1cccc(Cl)c1 (stereo partly drawn) [Example 2, 7-[2S-[3R-Hydroxy-4-(chlorophenyl)-butyl]-5-oxo-pyrrolidin-1-yl]-heptanoic acid, ethyl ester] | 65 | 1000 | – | – | – | – | –
O=C(O)CCCCCCN1C(=O)CC[C@@H]1CCC(O)Cc1cccc(C(F)(F)F)c1 (stereo partly drawn) [Example 5, 7-[2S-[3R-Hydroxy-4-(3-trifluoromethyl-phenyl)-butyl]-5-oxo-pyrrolidin-1-yl]-heptanoic acid] | 0.4 | 17 | – | – | hit | – | –
O=C(O)CCCCCCN1C(=O)CC[C@@H]1/C=C/C(O)Cc1cccc(C(F)(F)F)c1 (stereo partly drawn) [Example 5a, 7-[2S-[3R-Hydroxy-4-(3-trifluoromethyl-phenyl)-but-1-enyl]-5-oxo-pyrrolidin-1-yl]-heptanoic acid] | 0.4 | 5 | – | – | hit | – | –
CCOC(=O)CCCCCCN1C(=O)CC[C@@H]1CCC(O)Cc1cccc(C(F)(F)F)c1 (stereo partly drawn) [Example 6, 7-[2S-[3R-Hydroxy-4-(3-trifluoromethyl-phenyl)-butyl]-5-oxo-pyrrolidin-1-yl]-heptanoic acid, ethyl ester] | 111 | 1200 | – | – | – | – | –
O=C(O)CCCCCCN1C(=O)CC[C@@H]1CCC(=O)Cc1cccc(C(F)(F)F)c1 [Example 7, 7-[2S-[3-Oxo-4-(trifluormethylphenyl)-butyl]-5-oxo-pyrrolidin-1-yl]-heptanoic acid] | 551 | 2200 | – | – | hit | > 10000 | > 10000
O=C(O)CCCCCCN1C(=O)CC[C@@H]1CCC(O)Cc1ccccc1 (stereo partly drawn) [Example 9, 7-[2S-[3R-Hydroxy-(4-phenyl)-butyl]-5-oxo-pyrrolidin-1-yl]-heptanoic acid] | 2.4 | 18 | – | > 10000 | – | – | –

Second part, led by results:

EC50 (hEP4 [1]) [nM] | IC50 (hEP4 [2]) [nM] | hEP1 functional EC50 (hEP1) | EC50 (hEP3A) [nM] | hEP3A functional EC50 (hEP3A) | Structure (SMILES) | EC50 (hTP) [nM] | EC50 (hEP1) [nM]
21 | 300 | – | – | – | CCOC(=O)CCCCCCN1C(=O)CC[C@@H]1/C=C/C(O)Cc1cccc(Cl)c1 (stereo partly drawn) [Example 2a, 7-[2S-[3R-Hydroxy-4-(chlorophenyl)-but-1-enyl]-5-oxo-pyrrolidin-1-yl]-heptanoic acid, ethyl ester] | – | –
54 | 300 | hit | 324 | – | O=C(O)CCCCCCN1C(=O)CC[C@@H]1/C=C/C(=O)Cc1cccc(Cl)c1 [Example 3a, 7-[2S-[4-(3-Chloro-phenyl)-3-oxo-but-1-enyl]-5-oxo-pyrrolidin-1-yl]-heptanoic acid] | > 10000 | –
> 10000 | > 10000 | – | – | – | CCOC(=O)CCCCCCN1C(=O)CC[C@@H]1/C=C/C(=O)Cc1cccc(Cl)c1 [Example 4a, 7-[2S-[4-(3-Chloro-phenyl)-3-oxo-but-1-enyl]-5-oxo-pyrrolidin-1-yl]-heptanoic acid, ethyl ester] | – | –
7160 | > 10000 | – | – | – | CCOC(=O)CCCCCCN1C(=O)CC[C@@H]1CCC(=O)Cc1cccc(C(F)(F)F)c1 [Example 8, 7-[2S-[3-Oxo-4-(trifluoromethylphenyl)-butyl]-5-oxo-pyrrolidin-1-yl]-heptanoic acid, ethyl ester] | – | –
> 10000 | > 10000 | – | > 10000 | – | CCOC(=O)CCCCCCN1C(=O)CC[C@@H]1/C=C/C(=O)Cc1cccc(C(F)(F)F)c1 [Example 8a, 7-[2S-[3-Oxo-4-(trifluoromethylphenyl)-but-1-enyl]-5-oxo-pyrrolidin-1-yl]-heptanoic acid, ethyl ester] | – | –
1020 | – | – | – | – | CCOC(=O)CCCCCCN1C(=O)CC[C@@H]1CCC(O)Cc1ccccc1 (stereo partly drawn) [Example 10, 7-[2S-[3R-Hydroxy-(4-phenyl)-butyl]-5-oxo-pyrrolidin-1-yl]-heptanoic acid, ethyl ester] | – | –
368 | 600 | – | – | – | CCOC(=O)CCCCCCN1C(=O)CC[C@@H]1/C=C/C(O)Cc1ccccc1 (stereo partly drawn) [Example 10a, 7-[2S-[3R-Hydroxy-(4-phenyl)-but-1-enyl]-5-oxo-pyrrolidin-1-yl]-heptanoic acid, ethyl ester] | – | –
> 10000 | 8900 | – | – | – | CCOC(=O)CCCCCCN1C(=O)CC[C@@H]1CCC(=O)Cc1ccccc1 [Example 12, 7-[2S-[3-Oxo-4-(phenyl)-butyl]-5-oxo-pyrrolidin-1-yl]-heptanoic acid, ethyl ester] | – | –
> 10000 | > 10000 | – | – | – | CCOC(=O)CCCCCCN1C(=O)CC[C@@H]1/C=C/C(=O)Cc1ccccc1 [Example 12a, 7-[2S-[3-Oxo-4-(phenyl)-but-1-enyl]-5-oxo-pyrrolidin-1-yl]-heptanoic acid, ethyl ester] | – | –

— patent publication US6906097B2, “8-azaprostaglandin analogs as agents for lowering intraocular pressure” (Allergan, Inc., priority 2002, dated 2005)
